Test results taken from a melting point compilation (Tetko et al.; mined from patent text by program, amines drawn as free bases though some values may be those of a salt).

Row | melting point [°C] | Structure (SMILES)
1 | 106 to 107 | OCCN(CCc1ccccc1)C(=S)NCCCc1ccncc1
2 | 182 to 185 | CC(=O)N1C=C(c2ccccc2)NC(=O)C1C(C)C (racemic)
3 | 153 to 155 | CC(=O)c1c(C)[nH]c(-c2ccccc2)c1N(C)C
4 | 111 to 113 | CCn1nnnc1NCC(O)COc1cccc(CN2CCCCC2)c1 (centres undefined)
5 | 97 to 99 | CCOC(=O)c1c(-c2ccc(F)cc2)nc(-c2ccccc2)nc1C(C)C
6 | 167 to 170 | CCc1cc(O)cc(C)c1N
7 | 88 | COc1ccccc1CC(=NCc1cccs1)N1C[C@@H]2C(=O)CCC(c3ccccc3)(c3ccccc3)[C@@H]2C1
8 | 132 | NCCCCNC(=O)C1(NC(=O)CCCC(=O)O)Cc2ccccc2C1
9 | 224 to 225 | FC(F)(F)c1cc(Cl)c(-c2nc(Br)c[nH]2)c(Cl)c1
10 | 67 to 68 | CC[C@H](Nn1c([C@H](C)OC)nnc1[C@H](C)OC)C(OC)OC
11 | 50 to 53 | CC(C)(C)c1ocnc1C=C(O)C(=O)N[C@@H](Cc1ccccc1)C(N)=O
12 | 98 | O=C(/C=C/c1cccc(C(F)(F)F)c1)NC1CC1
13 | 154 to 155 | N#CCC(O)(Cn1cncn1)c1ccc(F)cc1F (centres undefined)
14 | 155 to 156 | CCOC(=O)c1c(C)cc2c(c1C)c(=O)n(-c1ccccc1Cl)c(=O)n2CCCN(C)C
15 | 112 to 114 | Cc1ccc2cccc(OCc3c(Cl)ccc(OCCNC(=O)CCc4ccccc4)c3Cl)c2n1
16 | 86 to 87 | CC(C)S(=O)(=O)NCC(C)(F)c1ccc(-c2cccc3c2CC(=O)N3)cc1 (centres undefined)
17 | 72.5 to 74.5 | c1ccc(Sc2ccc(-c3ccccc3)s2)cc1
18 | 175 to 178 | O=C1CCCc2nc(N3CCNCC3)ncc2N1
19 | 292 to 293 | CC(C)(CNC(=O)c1ncc[nH]1)c1ccc(C(=O)Nc2cn3cc(C(F)(F)F)ccc3n2)cc1
20 | 70 to 71 | CCOC(=O)CCc1cn(-c2ccc(Cl)cn2)nc1C(C)C
21 | 204 | CC1CCCC(C)N1S(=O)(=O)N[C@@H](Cc1ccc(Nc2nccc3cnccc23)cc1)C(=O)O (some centres undefined)
22 | 182 to 183 | COc1cc(Nc2c(C#N)cnc3cc(-c4ccc(CN5CCOCC5)o4)ccc23)c(Cl)cc1Cl
23 | 177 to 179 | COc1ccc(C2=NN(C3CCN(C(=O)CN4C(=O)CCC4=O)CC3)C(=O)C(C)(C)C2)cc1OC
24 | 84 to 86.5 | COc1ccc([C@@H]2CCCC[C@@H]2[N+](=O)[O-])cc1OC (racemic)

Row | melting point [°C] | Structure (SMILES)
25 | 130 to 132 | O=C(c1ccc(F)cc1)N1CC2CC2(c2ccc(Cl)cc2)C1 (centres undefined)
26 | 142 to 144 | CCOC(=O)c1cnc2snc(C)c2c1N(Cc1cccnc1)S(=O)(=O)c1ccc(OC)cc1
27 | 57 to 59 | CCOC(=O)C(=CNc1ccn(Cc2ccccc2)n1)C(=O)OCC
28 | 81 to 83 | COC(=O)C1=C(C)NC(C)=C(C(=O)OCCCCCCS(=O)c2nc(C)cs2)C1c1cccc([N+](=O)[O-])c1 (centres undefined)
29 | 138 to 139 | CCS(=O)c1ccc(N2CC(CNC(C)=S)OC2=O)cc1F (centres undefined)
30 | 115 to 118 | COc1ccc(C(N)=S)c(OC)c1
31 | 192 to 193 | O=C(Nc1ccc(F)nc1)N1CCN(c2ccnc(-c3cccc(F)c3F)n2)CC1
32 | 184 to 187 | CCCCNC(=O)c1cc(-c2csc(-c3ccc([N+](=O)[O-])cc3)n2)n(CC2CCCCC2)c1C
33 | 182 | CCCCc1c(C(=O)c2ccc(O)cc2)sc2ccc([N+](=O)[O-])cc12
34 | 127 to 128 | CN(C)c1ccc(/C=C/c2c(F)cc(F)cc2F)cc1
35 | 144 to 147 | COc1ccc(C2(CNC(=O)Nc3c(C(C)C)cccc3C(C)C)CCCC2)cc1
36 | 151 to 153 | O=c1nc(-c2cccc(CN3CCC(Cc4ccccc4)CC3)n2)sc2ccccc12
37 | 153 to 155 | O=S(=O)(Cc1ccccc1)c1c[nH]c2ccccc12
38 | 236 to 238 | COc1ccc(C2=C(OC(C)=O)C(=O)Nc3ccc(Cl)cc3S2)cc1
39 | 164 to 166 | CC(C)Oc1c(C(N)=O)n(C)c2ccc(OCc3ccccc3)cc12
40 | 211 to 212 | CS(=O)(=O)c1ccc(-c2nn(Cc3ccccc3)c(=O)cc2-c2ccccc2)cc1
41 | 136 to 138 | C#CCOc1cc(-n2c(OC)nc(C(F)(F)F)cc2=O)c(F)cc1Br
42 | 243 to 244 | COc1cc(OC)c2c(=O)[nH]c(-c3cccc(N4CCN(CCS(C)(=O)=O)CC4)n3)nc2c1
43 | > 250 | CC=CC(=O)Nc1ccc2c(Nc3cccc(Br)c3)ncnc2c1
44 | 142 to 143 | Cc1oc(-c2ccc(C(F)(F)F)cc2)nc1COc1cccc(Cn2oc(=O)[nH]c2=O)c1
45 | 267 to 268 | CC(C)(C)c1cc(NC(=O)c2csc(-c3ccc(N)cc3)n2)cc(C(C)(C)C)c1O
46 | 172 | CN1C(=O)CC[C@]2(C)c3ccc(-c4cc(Cl)cc(Cl)c4)cc3CC[C@@H]12
47 | 293 to 294 | Cc1nc(NC(=O)c2cnn3c(C4CC4)cc(-c4ccc(Cl)cc4)nc23)sc1S(=O)(=O)NC(C)(C)CO
48 | 138 to 139 | CCOC(=O)c1c(CN(CC)CC)nc2sc3c(c2c1-c1ccc(OC)c(OC)c1)CCCN3C(=O)OCc1ccccc1

Row | melting point [°C] | Structure (SMILES)
49 | 116 to 118 | C[C@H](Cc1ccc(O)c(O)c1)NC(=O)OC(C)(C)C
50 | 175 to 177 | CCn1cc(C(=O)NCCc2ccncc2)c(=O)c2cnc(N3CCCC3)nc21
51 | 79 to 80 | O=C(NCc1ccc2ccn(C3CCN(CCc4ccc(F)cc4)CC3)c2c1)C(F)F
52 | 151 to 153 | CCn1nc(-c2ccccc2)c(C(C)=O)c(N)c1=O
53 | 92 to 93 | CC(C)OCC(O)COc1ccc(/C=C/C(=O)O)c(Oc2ncc(C(F)(F)F)cc2Cl)c1 (centres undefined)
54 | 97 | C=C(C(=O)c1cc2c(c(C)c1C)OC(C(=O)O)C2)C(C)C (centres undefined)
55 | 227 to 229 | COc1ccc2nc(NC(=O)C(CC3CCCC3)c3ccc(S(=O)(=O)NCc4cccnc4)cc3)sc2n1 (centres undefined)
56 | 243 | COc1ccc(-c2nc3cc(C(C(C)C)n4ccnc4)ccc3[nH]c2=O)cc1OC (centres undefined)
57 | 197 to 200 | CC(=O)N1CCc2cc(-c3ccc4c(c3)CC[C@H]3N(C)C(=O)CC[C@]43C)ccc21
58 | 146 | CNC(=O)n1sc(Cc2ccccc2)nc1=O
59 | 126 to 127 | Nc1cccn2c(Cl)cnc12
60 | 109 to 110 | Oc1cccc2c1ccn2CCCCCc1ccccc1
61 | 150 to 152 | Cn1nc(C(F)(F)C(F)(F)F)c(C(F)(F)F)c1-n1cc(-c2ccc(Cl)c(C(=O)NC3CC3)c2)nn1
62 | 208 to 209 | CCC#CCOc1cc2c(cc1/C=C/C=C/C(C)=C/C(=O)O)C(C)(C)CCC2(C)C
63 | 145 to 148 | CNc1nccc(-c2cc(NCCCNc3ncnc4[nH]nc(Br)c34)c3cc(OC)ccc3c2)n1
64 | 104 to 106 | CCOC(=O)C(=CNc1csnn1)C(=O)c1cc(F)c(F)cc1F
65 | 181 | Cc1cccc(NC(=O)NC(C(=O)N(c2ccccc2)c2ccccc2)c2ccccc2)c1 (racemic)
66 | 190 to 193 | Cc1cc(Cn2c(-c3ccccc3)nc(Cl)c2CC(=O)O)ccc1O
67 | 144 | Cc1ccc(C23CCC(O)(CC2)CC3)cc1
68 | 108 to 110 | O=C(O)C(=O)c1ccc(OCCOc2ccccc2F)cc1
69 | 95.9 to 97.6 | O=C(Nc1cccnc1)N1CCC(=C2c3ccc(Cl)cc3C=Cc3cccnc32)CC1
70 | 188 to 192 | N#Cc1c(C(F)(F)F)[nH]c2ccc(Br)cc12
71 | 138 | CCCCN1CCC(CNC(=O)c2ccc(N)n3cc(C(C)C)nc23)CC1
72 | 230 | O=C(Nc1ccc2ccc(Cl)nc2n1)c1ccc(Cl)c(Cl)c1

Row | melting point [°C] | Structure (SMILES)
73 | 50 to 52 | CC(O)c1ccccc1N (centres undefined)
74 | 259 to 261 | CC1(C)Oc2ccc(S(=O)(=O)C(F)(F)F)cc2[C@@H](N2Cc3c(F)cccc3C2=O)[C@@H]1O (relative stereo)
75 | 145 to 148 | OCC1OC(n2c(S)nc3c(NCc4ccccc4)ncnc32)C(O)C1O (centres undefined)
76 | 108 to 112 | CCC1Nc2cc(C)cc(C)c2N1c1ccc(CCNC(=O)NS(=O)(=O)c2ccc(C)cc2)cc1 (centres undefined)
77 | 85 | COC=C(C(=O)OC)n1ccc2ccc(-c3nccc(-c4ccccc4)n3)cc21
78 | 80 to 82.5 | C=CCc1c(N2C(=O)C3=C(CCCC3)C2=O)ccc(Cl)c1O
79 | 240 to 242 | COc1nc2c(N)nc3ccccc3c2n1Cc1ccccc1
80 | 92 to 94 | COC(=O)C(C)N(C(=O)CCl)c1c(C)cccc1C (centres undefined)
81 | 98 to 99 | Cc1ccc(O[C@@H]2CNCC[C@H]2O)cc1C (relative stereo)
82 | 244 | CCc1ccc2c(c1)C=Cc1cc(C)ccc1C2c1cn(-c2ccnc(N3CC(C(=O)O)C3)n2)c(=O)[nH]c1=O (centres undefined)
83 | 232 to 233 | CC(=O)Nc1c(C(=O)c2cc(F)cc(F)c2)[nH]c2cc(Cl)ccc12
84 | 275 to 278 | NC(=O)Cn1c(-c2ccccn2)nc2cccnc21
85 | 247 to 249 | COC(=O)C(=O)Nc1cccc2c1C(=O)N(C1CCC(=O)NC1=O)C2=O (centres undefined)
86 | 260 to 262 | Oc1nccc2ccncc12
87 | 156 to 158 | NC(=O)c1cc([N+](=O)[O-])cnc1C(Br)Br
88 | 92 to 93 | Cn1nnnc1SCCCCN1C(=O)c2ccccc2C1=O
89 | 121 to 122 | CCC1CCCCN1C(=O)C=Cc1c(-c2ccccc2)nn2ccccc12 (centres undefined)
90 | 55 to 56 | CCCCCCCCCC1OC1CO (centres undefined)
91 | 134 to 135 | NS(=O)(=O)C=C(c1ccccc1)c1ccccc1
92 | 52 to 54 | CN1C(=O)C(c2ccc(OC(F)F)cc2)(c2cccc(OC(F)F)c2)N=C1N (centres undefined)
93 | 64 to 65 | COC(=O)C(Oc1ccc(Cl)cc1)c1ccc(OCOc2ccc(Cl)cc2)cc1 (centres undefined)
94 | 102 to 103 | N#CC(Cl)Cc1ccc(Cl)cc1C(=O)c1ccccc1Cl (centres undefined)

Row | Structure (SMILES) | melting point [°C]
95 | C(#Cc1ccccn1)CCN1CC=C(c2ccccc2)CC1 | 87.5 to 88.5
96 | CCN(CC)CC#CCNC(=O)C(O)(c1ccccc1)C1CCCCC1 (centres undefined) | 102 to 104
97 | COC(=O)CC1CC(c2ccc(C#N)nc2)=NO1 (centres undefined) | 115 to 116
98 | NC(=O)c1nc2n(n1)-c1ccc(Cl)cc1C(c1ccccc1)=NC2 | 252 to 254
99 | CNC(Cc1ccccc1N)c1ccncc1 (centres undefined) | 69 to 71
